In patent US8592421B2, “Cyclic bioisosters of purine system derivatives and a pharmaceutical composition based thereon” (priority 2003, dated 2013):

Assays:
thrombocytes = experiment: ADP-induced aggregation of thrombocytes in vitro (Born method, plasma enriched with thrombocytes); format: cell-based, rabbit; settings: 3-minute incubation, ADP 10^−5 M
plasma hemostasis [1] = experiment: Autocoagulation test (coagulating activity A) after intravenous administration; format: in vivo, rabbit; settings: for effect on the coagulation activity according to the autocoagulation test: doses 15.0, 30.0, 60.0 mg/kg
Procedure: The investigations were performed on 72 rabbits of the “Chinchilla” breed with a mass of 2.5±0.3 kg, who were administered which solutions of compounds 2, 15, 21, 37 in doses of 15, 30 and 60 mg/kg intravenously. The experiments included the thrombin-test (series No. 7300) and the coagulability-test (series No. 5000) purchased from the scientific-and-production association (SPA) “Renam”, thromboplastin (series No. 240600) and calcium chloride purchased from the SPA “MedioLab”
(§1) The static parameters of the blood and plasma coagulation (partial activated thromboplastin time, thrombin time, maximum coagulation activity (test for auto coagulation) were determined using the Behnk Electronic coagulometer (Germany). The operating principle of this instrument is based on the fact that the formed blood clot breaks the contacts of the pulse counter in the flask-pin circuit, said pin permanently oscillating in a vertical plane. The moment of formation of the clot is registered by stopping the stop watch hand.
(§2) The measurements were effected at a constant temperature of 37° C. maintained by a temperature control unit.
Compounds 2, 15, 21, 37 according to the invention at a concentration of 15, 30 and 60 mg/kg were intravenously administered to the above experimental animals and their blood samples were taken off 15, 30, 60 and 120 minutes after the administration.
Added to 0.2 ml of plasma obtained by centrifuging citrate blood at 1500 rev/min within 10 minutes was a glycosylate-calcium mixture (2.0 ml 0.222% CaCl2+0.1 ml of investigated citrate blood) 4, 6, 8, 10 minutes after the preparation of this mixture and the time of coagulation in the sample was determined.
The obtained results in seconds were translated in factors of coagulating activity A in percent, which specify the state of both the coagulating and anticoagulating parts of the blood coagulating system. The results of the experiments are given in Table 7. • The effect of the compounds according to the invention on the values of coagulating activity A by the data of autocoagulation test with intravenous administration of the compounds to the rabbits

plasma hemostasis [2] = experiment: Partial activated thromboplastin time (PATT) after intravenous administration; format: in vivo, rabbit; settings: for effect on the PATT: doses 15.0, 30.0, 60.0 mg/kg
Procedure: as §1, §2

[3] = 15.0 mg/kg intravenously, after 15 minutes, control 85.6
[4] = 15.0 mg/kg intravenously, after 30 minutes, control 85.6
[5] = 15.0 mg/kg intravenously, after 60 minutes, control 85.6
[6] = 15.0 mg/kg intravenously, after 120 minutes, control 85.6
[7] = 30.0 mg/kg intravenously, after 15 minutes, control 70.0
[8] = 30.0 mg/kg intravenously, after 30 minutes, control 70.0
[9] = 30.0 mg/kg intravenously, after 60 minutes, control 70.0
[10] = 30.0 mg/kg intravenously, after 120 minutes, control 70.0
[11] = 60.0 mg/kg intravenously, after 15 minutes, control 65.9
[12] = 60.0 mg/kg intravenously, after 30 minutes, control 65.9
[13] = 60.0 mg/kg intravenously, after 60 minutes, control 65.9
[14] = 60.0 mg/kg intravenously, after 120 minutes, control 65.9
[15] = 15.0 mg/kg intravenously, after 15 minutes, control 37.0 ± 0.2
[16] = 15.0 mg/kg intravenously, after 30 minutes, control 37.0 ± 0.2
[17] = 15.0 mg/kg intravenously, after 60 minutes, control 37.0 ± 0.2
[18] = 15.0 mg/kg intravenously, after 120 minutes, control 37.0 ± 0.2
[19] = 30.0 mg/kg intravenously, after 15 minutes, control 33.3 ± 0.8
[20] = 30.0 mg/kg intravenously, after 30 minutes, control 33.3 ± 0.8
[21] = 30.0 mg/kg intravenously, after 60 minutes, control 33.3 ± 0.8
[22] = 30.0 mg/kg intravenously, after 120 minutes, control 33.3 ± 0.8
[23] = 60.0 mg/kg intravenously, after 15 minutes, control 32.5 ± 0.3
[24] = 60.0 mg/kg intravenously, after 30 minutes, control 32.5 ± 0.3
[25] = 60.0 mg/kg intravenously, after 60 minutes, control 32.5 ± 0.3
[26] = 60.0 mg/kg intravenously, after 120 minutes, control 32.5 ± 0.3

Compound	MA - fall of optical density of plasma, % to the standard (thrombocytes; 10^−3 M, control 60.8 ± 3.4) [%]	MA - fall of optical density of plasma, % to the standard (thrombocytes; 10^−4 M, control 60.0 ± 2.1) [%]	MA - fall of optical density of plasma, % to the standard (thrombocytes; 10^−5 M, control 52.5 ± 2.1) [%]	MA - drop of optical density, % (thrombocytes; 10^−6 M, control 52.8 ± 1.8) [%]	MA - drop of optical density, % (thrombocytes; 10^−7 M, control 51.5 ± 2.1) [%]	coagulating activity A (autocoagulation test) (plasma hemostasis [1]; [3]) [%]	coagulating activity A (autocoagulation test) (plasma hemostasis [1]; [4]) [%]	coagulating activity A (autocoagulation test) (plasma hemostasis [1]; [5]) [%]	coagulating activity A (autocoagulation test) (plasma hemostasis [1]; [6]) [%]	coagulating activity A (autocoagulation test) (plasma hemostasis [1]; [7]) [%]	coagulating activity A (autocoagulation test) (plasma hemostasis [1]; [8]) [%]	coagulating activity A (autocoagulation test) (plasma hemostasis [1]; [9]) [%]	coagulating activity A (autocoagulation test) (plasma hemostasis [1]; [10]) [%]	coagulating activity A (autocoagulation test) (plasma hemostasis [1]; [11]) [%]	coagulating activity A (autocoagulation test) (plasma hemostasis [1]; [12]) [%]	coagulating activity A (autocoagulation test) (plasma hemostasis [1]; [13]) [%]	coagulating activity A (autocoagulation test) (plasma hemostasis [1]; [14]) [%]	effect on the coagulation activity according to the autocoagulation test (plasma hemostasis [1])	PATT, T (plasma hemostasis [2]; [15]) [s]	PATT, T (plasma hemostasis [2]; [16]) [s]	further results
Nc1cccc2c(=O)[nH][nH]c(=O)c12.[Na] [Compound 15, sodium salt of 5-amino-benzo[d]-3H-pyridazine-1,4-dione]	44.8 ± 2.8	46.3 ± 1.7	39.8 ± 3.1	47.3 ± 1.8	49.3 ± 1.4	82.3	103.0	89.0	101.2	100.3	68.4	106.6	70.6	74.4	63.2	64.4	66.5	have no effect on the coagulation activity	37.0 ± 0.1	37.0 ± 0.2	PATT, T (plasma hemostasis [2]; [17]): 36.9 ± 0.1 s; PATT, T (plasma hemostasis [2]; [18]): 37.0 ± 0.3 s; PATT, T (plasma hemostasis [2]; [19]): 32.9 ± 0.8 s; PATT, T (plasma hemostasis [2]; [20]): 32.1 ± 0.1 s; PATT, T (plasma hemostasis [2]; [21]): 32.0 ± 0.2 s; PATT, T (plasma hemostasis [2]; [22]): 32.0 ± 0.1 s; PATT, T (plasma hemostasis [2]; [23]): 32.2 ± 0.1 s; PATT, T (plasma hemostasis [2]; [24]): 32.2 ± 0.1 s; PATT, T (plasma hemostasis [2]; [25]): 32.1 ± 0.2 s; PATT, T (plasma hemostasis [2]; [26]): 32.2 ± 0.1 s; effect on the PATT (plasma hemostasis [2]): do not affect the PATT
Nc1ccnc2c(=O)n([C@@H]3O[C@H](CO)[C@@H](O)[C@H]3O)[nH]c(=O)c12 [Compound 2, 4-amino-7-(β-D-ribofuranosile)pyrido[2,3-d]-6H-pyridazine-5,8-dione]	51.4 ± 2.7	50.4 ± 1.7	48.2 ± 1.0	50.1 ± 2.0	50.8 ± 2.2	80.2	100.0	87.4	98.0	98.4	71.2	104.2	70.9	72.3	60.8	62.5	65.7	have no effect on the coagulation activity	37.0 ± 0.1	37.0 ± 0.2	PATT, T (plasma hemostasis [2]; [17]): 36.9 ± 0.1 s; PATT, T (plasma hemostasis [2]; [18]): 37.0 ± 0.3 s; PATT, T (plasma hemostasis [2]; [19]): 32.7 ± 0.5 s; PATT, T (plasma hemostasis [2]; [20]): 32.0 ± 0.1 s; PATT, T (plasma hemostasis [2]; [21]): 32.2 ± 0.1 s; PATT, T (plasma hemostasis [2]; [22]): 32.1 ± 0.2 s; PATT, T (plasma hemostasis [2]; [23]): 32.3 ± 0.2 s; PATT, T (plasma hemostasis [2]; [24]): 32.4 ± 0.1 s; PATT, T (plasma hemostasis [2]; [25]): 32.3 ± 0.1 s; PATT, T (plasma hemostasis [2]; [26]): 32.4 ± 0.1 s; effect on the PATT (plasma hemostasis [2]): do not affect the PATT
